Measurements reported in patent publication US10570179B2, “Substituted urea depsipeptide analogs as activators of the CLPP endopeptidase” (priority 2016, dated 2020).
Numbered stars: 1 amine (or outer) side, 2 acyl side, 3 side chain; on linkers, the order of the positions; unused ones are H or OH. Bridge positions count the residues as written; N and C are the ends. Square brackets hold non-standard residues; d marks the D form. Peptide text beside a SMILES is read from it. * marks the point of attachment. ξ: configuration not given here. Piperazine(2S-CO,4-Me) = CN1CCN[C@H](C(=O)O)C1; Phe(3,5-F2) = N[C@@H](Cc1cc(F)cc(F)c1)C(=O)O; Phe(3-Me) = Cc1cccc(C[C@H](N)C(=O)O)c1; X4 = O=C1CN([*:1])[C@H](C(=O)[*:2])CN1; NH(4-Cl-2-F-phenyl) = Fc1cc(Cl)ccc1N*; Pro(4R-Me) = C[C@H]1CN[C@H](C(=O)O)C1; Hyp = O=C(O)[C@@H]1C[C@@H](O)CN1; ξNMeThr = CNC(C(=O)O)[C@@H](C)O; aThr = C[C@H](O)[C@H](N)C(=O)O; Pip = O=C(O)[C@@H]1CCCCN1; CO = O=C([*:1])[*:2]; X2 = Fc1cc(N*)ccc1Cl

Experiments:
S. aureus ΔClpP = assay: Minimal inhibitory concentration, microbroth dilution; assay type: cell-based, Staphylococcus aureus; settings: MIC; ClpP inactivated
How it was run: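 MIC is recorded by eye as the lowest drug concentration that stops bacterial growth. Compound is serially diluted twofold in broth, starting at 200 μM final, and bacteria are added at roughly 10^5 cfu/mL. Incubation runs overnight at 37 °C under aerobic conditions, per CLSI guidance.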

[1] = Plasma protein binding, rapid equilibrium dialysis; assay type: in vitro ADME, human; settings: 10 μM
Protocol: This assay determines plasma protein binding of a drug/compound and free drug concentration in plasma using rapid equilibrium dialysis, which allow the aqueous component of plasma containing the free drug/compound through a dialysis membrane (MWCO˜8,000).
Solutions were prepared at 10 mM in DMSO. Dulbecco's phosphate buffered saline (DPBS; pH 7.4) was obtained from Invitrogen (Carlsbad, Calif.). Single-Use RED (rapid equilibrium dialysis) device was obtained from Thermo scientific (Rockford, Ill.). Human plasma was obtained from Innovative Research INC (Novi, Michigan, Ill).
Sample preparation for plasma protein binding was modified from Waters' method. (Waters et al. (2008) J. Pharm. Sci. 97(10): 4586-95). The Teflon base plate with the RED inserts (MWCO 8 K) were allowed to use without any pre-condition the membrane inserts. Human plasma was thawed and centrifuged at 1000 rpm for 2 min to remove any particulates. Each compound was prepared at 10 μM in human plasma. This was done by adding 1 μL, of drug solution (10 mM in DMSO) to 1000 μL, of human plasma (0.1% DMSO). Spiked plasma solutions (300 μL) were placed into the sample chamber (indicated by the red ring) and 500 μL, of DPBS into the adjacent chamber. The plate was sealed and incubated at 37° C. on an orbital shaker (100 rpm) for 4 hours. After incubation, the seal was removed from the RED plate and the volume of the insert confirmed—little to no volume change occurred. Aliquots (50 μL) were removed from each side of the insert and dispensed into a 96-well deep plate. An equal volume of blank plasma or DPBS was added to the required wells to create analytically identical sample matrices (matrix matching). To each sample 200 μL, of ACN containing 4 μg/mL warfarin IS was added. All of the plates were sealed and mixed well at 600 rpm for 10 min and were centrifuged at 4000 rpm for 20 min. The supernatants (120 μL) were transferred to analytical plates for analysis by LCMS. Conditions for Waters ACQUITY-UPLC-MS-UV system were described separately. The test compound concentrations were quantified in both buffer and plasma chambers via peak areas relative to the internal standard. The percentage of the test compound bound to plasma was calculated on following equations: % Free=(Concentration buffer chamber/concentration plasma chamber)×100% and % Bound=100%-% Free.

[2] = Microsomal metabolic stability; assay type: in vitro ADME, human
Protocol: Compounds were initially prepared by dissolving them into DMSO at a final concentration of 10 mM. NADPH regenerating solutions A and B and mouse liver microsomes (CD-1) were obtained from BD Gentest (Woburn, Mass.). Ninety-six well deep well plates were obtained from MidWest Scientific Inc (Valley Park, Mo.).
Sample preparation for microsomal stability was modified from methods of Di, L., et al., Int J Pharm. 2005 Jun. 13; 297(1-2):110-9. A set of incubation times of 0, 15, 30, 60, 120, and 240 minutes were used. Mouse liver microsomal solutions were prepared by adding 58 μL of concentrated human or mouse liver microsomes (20 mg/mL protein concentration) to 1.756 mL of 0.1 M potassium phosphate buffer (pH 7.4) and 5 μL of 0.5 M EDTA to make a 0.6381 mg/mL (protein) microsomal solution. NADPH regenerating agent contained 113 μL of NADPH A, 23 μL of NADPH B, and 315 μL of 0.1 M potassium phosphate buffer (pH 7.4). The diluted test compound solutions (2 μL) were each added directly to a 1.79 mL of liver microsomal solution. This solution was mixed and 90 μL was transferred to 6 time points plates (each in triplicate wells). For the time 0 plate, 225 μL of cold acetonitrile with internal standard ([…] warfarin) was added to each well, followed by addition of NADPH regenerating agent (22.5 μL) and no incubation. For other five time points' plate, NADPH regenerating agent (22.5 μL) was added to each well to initiate the reaction. The plates were incubated at 37° C. for the required time, followed by quenching of the reaction by adding 225 μL of cold acetonitrile with internal standard (4 μg/ml warfarin). All of the plates were sealed and mixed well at 600 rpm for 10 minutes followed by centrifugation at 4000 rpm for 20 minutes. The supernatants (120 μL) were transferred to analytical plates for analysis by LCMS. LCMS conditions were described in the materials and instrumentation section above. The metabolic stability is evaluated via the half-life from least-squares fit of the multiple time points based on first-order kinetics.

| SMILES | Minimal Inhibitory Concentrations (μM) S. aureus ΔClpP (S. aureus ΔClpP) [µM] | Human ([1]; human, 4 h, pH 7.4) [%] | Human ([2]; human, pH 7.4) | Human ([1]; plasma binding, % Bound, human plasma) [%] | Human ([2]; microsomal metabolic stability half-life, human liver microsomes) [h] |
| --- | --- | --- | --- | --- | --- |
| Cc1cccc(C[C@H](NC(=O)Nc2ccc3c(c2)OCCO3)C(=O)N[C@H]2COC(=O)[C@@H]3C[C@@H](C)CN3C(=O)[C@H](C)NC(=O)[C@@H]3CCCCN3C(=O)[C@@H]3CCCN3C2=O)c1 [Compound 22, (S)-2-(3-(2,3-DIHYDROBENZO[B][1,4]DIOXIN-6-YL)UREIDO)-N-((2R,6S,8AS,14AS,20S,23AS)-2,6-DIMETHYL-5,8,14,19,23-PENTAOXOOCTADECAHYDRO-1H,5H,14H,19H-PYRIDO[2,1-I]DIPYRROLO[2,1-C:2′,1′-L][1]OXA[4,7,10,13]TETRAAZACYCLOHEXADECIN-20-YL)-3-(M-TOLYL)PROPANAMIDE] | >20 | 97.1 ± 0.2 | 3.57 ± 0.52 h |  |  |
| Cc1cccc(C[C@H](NC(=O)Nc2ccc(Cl)cc2F)C(=O)N[C@@H]2C(=O)N3C[C@H](O)C[C@H]3C(=O)N3CCN(C)C[C@H]3C(=O)N[C@@H](C)C(=O)N3C[C@H](C)C[C@H]3C(=O)O[C@H]2C)c1 [Compound 31, (S)-2-(3-(4-CHLORO-2-FLUOROPHENYL)UREIDO)-N-((6AS,8R,12S,13S,15AS,17R,21S,23AS)-8-HYDROXY-2,13,17,21-TETRAMETHYL-6,11,15,20,23-PENTAOXOOCTADECAHYDRO-2H,6H,11H,15H-PYRAZINO[2,1-I]DIPYRROLO[2,1-C:2′,1′-L][1]OXA[4,7,10,13]TETRAAZACYCLOHEXADECIN-12-YL)-3-(M-TOLYL)PROPANAMIDE] ({NH(4-Cl-2-F-phenyl)-CO}-[Phe(3-Me)][aThr][Hyp][Piperazine(2S-CO,4-Me)]A[Pro(4R-Me)]; ester 2-C) | >20 | 97.9 ± 7.9 | 3.87 ± .875 h |  |  |
| Cc1cccc(C[C@H](NC(=O)Nc2ccc(Cl)c(F)c2)C(=O)N[C@H]2COC(=O)[C@@H]3C[C@@H](C)CN3C(=O)[C@H](C)NC(=O)[C@@H]3CN(C)CCN3C(=O)[C@@H]3CCCN3C2=O)c1 [Compound 14, (S)-2-(3-(4-CHLORO-3-FLUOROPHENYL)UREIDO)-3-(M-TOLYL)-N-((6AS,12S,15AS,17R,21S,23AS)-2,17,21-TRIMETHYL-6,11,15,20,23-PENTAOXOOCTADECAHYDRO-2H,6H,11H,15H-PYRAZINO[2,1-I]DIPYRROLO[2,1-C:2′,1′-L][1]OXA[4,7,10,13]TETRAAZACYCLOHEXADECIN-12-YL)PROPANAMIDE] ({X2-CO}-[Phe(3-Me)]SP[Piperazine(2S-CO,4-Me)]A[Pro(4R-Me)]; ester 2-C) | >20 | 99.1 ± 0.2 | 0.73 ± 0.07 h |  |  |
| Cc1cccc(C[C@H](NC(=O)Nc2ccc(Cl)cc2F)C(=O)N[C@@H]2C(=O)N3CCC[C@H]3C(=O)N(C)C([C@@H](C)O)C(=O)N[C@@H](C)C(=O)N3C[C@H](C)C[C@H]3C(=O)O[C@H]2C)c1 (stereo partly drawn) [Compound 5] ({NH(4-Cl-2-F-phenyl)-CO}-[Phe(3-Me)][aThr]P[ξNMeThr]A[Pro(4R-Me)]; ester 2-C) | >20 | 98.0 ± 1.0 | 0.31 ± 0.03 h |  |  |
| Cc1ccc(NC(=O)N[C@@H](Cc2cccc(C)c2)C(=O)N[C@H]2COC(=O)[C@@H]3C[C@H](C)CN3C(=O)[C@H](C)NC(=O)[C@@H]3CCCCN3C(=O)[C@@H]3CCCN3C2=O)cc1 (stereo in doubt) [Compound 43, (S)—N-((2S,6S,8AS,14AS,20S,23AS)-2,6-DIMETHYL-5,8,14,19,23-PENTAOXOOCTADECAHYDRO-1H,5H,14H,19H-PYRIDO[2,1-I]DIPYRROLO[2,1-C:2′,1′-L][1]OXA[4,7,10,13]TETRAAZACYCLOHEXADECIN-20-YL)-3-(M-TOLYL)-2-(3-(P-TOLYL)UREIDO)PROPANAMIDE] | >20 |  |  | 72.9 ± 1.4 | 1.36 ± 0.14 |
| Cc1cccc(C[C@H](NC(=O)Nc2ccc3c(c2)OCO3)C(=O)N[C@H]2COC(=O)[C@@H]3C[C@@H](C)CN3C(=O)[C@H](C)NC(=O)[C@@H]3CCCCN3C(=O)[C@@H]3CCCN3C2=O)c1 [Compound 23, (S)-2-(3-(BENZO[D][1,3]DIOXOL-5-YL)UREIDO)-N-((2R,6S,8AS,14AS,20S,23AS)-2,6-DIMETHYL-5,8,14,19,23-PENTAOXOOCTADECAHYDRO-1H,5H,14H,19H-PYRIDO[2,1-I]DIPYRROLO[2,1-C:2′,1′-L][1]OXA[4,7,10,13]TETRAAZACYCLOHEXADECIN-20-YL)-3-(M-TOLYL)PROPANAMIDE] | >20 | 97.1 ± 0.2 | 30.2 ± 11.7 h |  |  |
| C[C@@H]1C[C@H]2C(=O)OC[C@H](NC(=O)[C@H](Cc3cc(F)cc(F)c3)NC(=O)Nc3ccc(Cl)cc3F)C(=O)N3CCC[C@H]3C(=O)N3CCN(C)C[C@H]3C(=O)N[C@@H](C)C(=O)N2C1 [Compound 34] ({NH(4-Cl-2-F-phenyl)-CO}-[Phe(3,5-F2)]SP[Piperazine(2S-CO,4-Me)]A[Pro(4R-Me)]; ester 2-C) | >20 | 96.5 ± 6.5 | 0.77 ± .775 h |  |  |
| Cc1cccc(C[C@H](NC(=O)Nc2ccc(Cl)cc2F)C(=O)N[C@@H]2C(=O)N3CCC[C@H]3C(=O)N3CC(=O)NC[C@H]3C(=O)N[C@@H](C)C(=O)N3C[C@H](C)C[C@H]3C(=O)O[C@H]2C)c1 [Compound 20, (S)-2-(3-(4-CHLORO-2-FLUOROPHENYL)UREIDO)-3-(M-TOLYL)-N-((6AS,12S,13S,15AS,17R,21S,23AS)-13,17,21-TRIMETHYL-3,6,11,15,20,23-HEXAOXOOCTADECAHYDRO-2H,6H,11H,15H-PYRAZINO[2,1-I]DIPYRROLO[2,1-C:2′,1′-L][1]OXA[4,7,10,13]TETRAAZACYCLOHEXADECIN-12-YL)PROPANAMIDE] ({NH(4-Cl-2-F-phenyl)-CO}-[Phe(3-Me)][aThr]P[X4]A[Pro(4R-Me)]; ester 2-C) | >20 | 97.5 ± 0.2 | 1.30 ± 0.09 h |  |  |
| Cc1cccc(C[C@H](NC(=O)Nc2ccc(Cl)c(F)c2)C(=O)N[C@@H]2C(=O)N3CCC[C@H]3C(=O)N3CCCC[C@H]3C(=O)N[C@@H](C)C(=O)N3C[C@H](C)C[C@H]3C(=O)O[C@H]2C)c1 [Compound 35, (S)-2-(3-(4-CHLORO-3-FLUOROPHENYL)UREIDO)-3-(M-TOLYL)-N-((2R,6S,8AS,14AS,20S,21S,23AS)-2,6,21-TRIMETHYL-5,8,14,19,23-PENTAOXOOCTADECAHYDRO-1H,5H,14H,19H-PYRIDO[2,1-I]DIPYRROLO[2,1-C:2′,1′-L][1]OXA[4,7,10,13]TETRAAZACYCLOHEXADECIN-20-YL)PROPANAMIDE] ({X2-CO}-[Phe(3-Me)][aThr]P[Pip]A[Pro(4R-Me)]; ester 2-C) | >20 | 99.9 ± 9.9 | 1.14 ± .145 h |  |  |
